The record followed here is EP0561850B1, “7-SUBSTITUTED-6-FLUORO-1,4-DIHYDRO-4-OXO-QUINOLINE-3-CARBOXYLIC ACID COMPOUNDS USEFUL AS ANTIBACTERIAL AGENTS” (priority 1990, dated 1992).

The structures appear in SMILES notation. Values after ≈ are worked out from the molar mass of the structure shown. Where a name gives a salt, the structure may show the parent alone. Read-outs that look alike come from different tables or passages of the source.

One test deals with Sa 127M. Nature of the test: Microbroth dilution (MHB) method, NCCLS M7-A2. Format: cell-based, Staphylococcus aureus. To be noted: Staphylococcus aureus, inoculum 5 x 10^5 cfu/ml, 35 °C/18 hr, read-out: MIC. On the procedure:
(§1) The test organisms were obtained from ATCC and clinical laboratories. The 96-well microtitre plates containing […] of serially diluted test compounds in Mueller Hinton Broth (MHB) (conc. range 64-0.03 µg/ml) were inoculated with […] of bacterial suspension in MHB so that an inoculum size of 5 x 10^5 cfu/ml was achieved.
(§2) EC. (S- 63): Eschericia coli Ecl. (S- 130): Enterobacter cloacae Pa. (S- 67): Pseudomonas aeruginosa Kp. (S- 80): Klebsiella pneumoniae Pr.
(§3) Microbroth Dilution (MHB) method; Inoculum, 5 x 10^5 cfu/ml; Incubation 35 °C/18 hr
(In general: In broth dilution the organism is exposed to a series of concentrations in liquid medium.)

A further test deals with Bacteroides fagilis AN-2. Nature of the test: In vitro antimicrobial activity against anaerobes, broth microdilution. Format: cell-based. From the text: (§4) The compounds of the invention display antibacterial activity when tested by the broth microdilution method as described in the NCCLS publications M7-A, M11-A and M17-P of the year 1985. For aerobic microorganisms, a cation supplemented Mueller Hinton Broth (BBL) was used whereas the Anaerobe Broth MIC (Difco) was used for anaerobic microorganisms. An agar Dilution method was employed for certain aerobic microorganisms using Mueller Hinton II Agar (BBL) and a Cathra multipoint inoculating device which delivered 10^4 cfu/spot of the inoculum on the agar surface. MICs were read after 16-18 hours and 48 hours of incubation in case of microbes growing aerobically and anaerobically respectively.
(§5) By use of the above method, the following minimum inhibitory concentration values (MICs in µg/ml) were obtained: Table 1, against microbes growing aerobically; Table 2, against microbes growing anaerobically; Table 3, against methicillin resistant Staphylococcus aureus and quinoline resistant-methicillin resistant Staphylococcus aureus.

Test [1] relates to Streptococcus intermedius AN-19. Described as above. Format: cell-based.
Text: as §4, §5

Test [2] has as its system Fusobacterium mortiferum AN-13. The test is described as above. Format: cell-based.
Text: as §4, §5

The test system of test [3] is Propionobacterium acne AN-17. Described as above. Format: cell-based.
Text: as §4, §5

The test system of test [4] is Peptostreptococcus asaccharolyticus AN-16. Described as above. Format: cell-based. Conditions: Peptoniphilus asaccharolyticus.
Text: as §4, §5

For test [5], the system named is Klebsiella pneumoniae S-80. The experiment in a line: Microbroth dilution (MHB) method, NCCLS M7-A2. The class given is cell-based. Conditions: Klebsiella pneumoniae, S80. On the procedure: as §1, §2, §3
Test [6] concerns Providencia rettgeri S-121. Nature of the test: Microbroth dilution (MHB) method, NCCLS M7-A2. Format: cell-based. Conditions: Providencia rettgeri, S121, Pr S-121, inoculum 5 x 10^5 cfu/ml, 35 °C/18 hr, read-out: MIC. Here is the method: as §1, §2, §3
For test [7], the system named is Pseudomonas aeruginosa S-67. Nature of the test: Microbroth dilution (MHB) method, NCCLS M7-A2. To be noted: Pseudomonas aeruginosa, S67. Format: cell-based. Here is the method: as §1, §2, §3
The subject of a further test is Eschericia coli S-63. The experiment in a line: Microbroth dilution (MHB) method, NCCLS M7-A2. The class given is cell-based. To be noted: Ec S-63, inoculum 5 x 10^5 cfu/ml, 35 °C/18 hr, read-out: MIC. On the procedure:
as §1, §2, §3

Test [8] has as its system Staphylococcus aureus S-127. Nature of the test: In vitro antimicrobial activity against aerobes, broth microdilution (NCCLS 1985). The class given is cell-based. Conditions: S127, read after 16-18 hours. On the procedure:
(§6) For aerobic microorganisms, a cation supplemented Mueller Hinton Broth (BBL) was used whereas the Anaerobe Broth MIC (Difco) was used for anaerobic microorganisms. An agar Dilution method was employed for certain aerobic microorganisms using Mueller Hinton II Agar (BBL) and a Cathra multipoint inoculating device which delivered 10^4 cfu/spot of the inoculum on the agar surface. MICs were read after 16-18 hours and 48 hours of incubation in case of microbes growing aerobically and anaerobically respectively.

Test [9] has as its system Methicillin Resistant S. aureus (MRSAs). Nature of the test: In vitro antimicrobial activity against methicillin resistant S. aureus. Format: cell-based. To be noted: Staphylococcus aureus; MRSA (6 C.I.), C.I. = Clinical Isolates. Here is the method: as §6
For test [10], the system named is Quinoline Resistant MRSAs (QRMRSAs). The experiment in a line: In vitro antimicrobial activity against quinoline resistant MRSA. Format: cell-based. Conditions: Staphylococcus aureus; QRMRSA (8 C.I.), C.I. = Clinical Isolates. On the procedure: as §6
Where [11] appears, read: AN2, Bacteroides fagilis AN-2, anaerobes, read after 48 hours, read-out: MIC.
[12] abbreviates: AN19, Streptococcus intermedius AN-19, anaerobes, read after 48 hours, read-out: MIC.
The mark [13] stands for this setting: AN13, Fusobacterium mortiferum AN-13, anaerobes, read after 48 hours, read-out: MIC.
[14] abbreviates: Propionobacterium acne AN-17, anaerobes, read after 48 hours, read-out: MIC.
[15] abbreviates: AN16, Peptostreptococcus asaccharolyticus AN-16, anaerobes, read after 48 hours, read-out: MIC.

What is called MIC is the lowest concentration that inhibits growth of the organism. `O=C(O)c1cn(C2CC2)c2cc(N3CCNCC3)c(F)cc2c1=O` [Ciprofloxacin, reference compound]: the MIC worked out at 8 µg/mL (≈ 24.1 µM) with Sa 127M; 16 µg/mL (≈ 48.3 µM) against Bacteroides fagilis AN-2 (Bacteroides, AN2, 48 h); 1 µg/mL (≈ 3.02 µM) in test [1] (Streptococcus intermedius, AN19, 48 h); 16 µg/mL (≈ 48.3 µM) in test [2] (Fusobacterium mortiferum, AN13, 48 h); 0.5 µg/mL (≈ 1.51 µM) in test [3] (48 h); 4 µg/mL (≈ 12.1 µM) in test [4] (AN16, 48 h). The MIC was 0.015 µg/mL (≈ 0.0453 µM) in [5], 0.015 µg/mL (≈ 0.0453 µM) in [6], 0.25 µg/mL (≈ 0.754 µM) in test [7] and not above 0.008 µg/mL in the test with Eschericia coli S-63.

Take `O=C(O)c1cn(-c2ccc(F)cc2)c2c(F)c(N3CCC(n4ccnn4)C3)c(F)cc2c1=O` (stereo not drawn) [Example 2, 6,8-Difluoro-1-(4-fluorophenyl)-7-[3-(1,2,3-triazol-1-yl)-pyrrolidin-1-yl]-1,4-dihydro-4-oxo-quinoline-3-carboxylic acid]: in test [8], the MIC was not above 0.06 µg/mL.

On to `Nc1c(F)c(N2CCC(n3ccnn3)C2)c(F)c2c1c(=O)c(C(=O)O)cn2C1CC1` (stereo not drawn) [Example 11, 5-Amino-1-cyclopropyl-6,8-difluoro-7-[3-(1,2,3-triazol-1-yl)-pyrrolidin-1-yl]-1,4-dihydro-4-oxo-quinoline-3-carboxylic acid], for which the MIC is 0.004 to 0.008 µg/mL (≈ 0.00961 to 0.0192 µM) in test [9]; 0.5 to 2 µg/mL (≈ 1.2 to 4.8 µM) in test [10]; 1 µg/mL (≈ 2.4 µM) in the test on Bacteroides fagilis AN-2 (setting [11]); 0.06 µg/mL (≈ 0.144 µM) in test [1] (setting [12]); 0.06 µg/mL (≈ 0.144 µM) in [2] (setting [13]); not above 0.03 µg/mL in test [3] (setting [14]). Also, in test [4] (setting [15]), the MIC came to 0.06 µg/mL (≈ 0.144 µM).

Take `Nc1c(F)c(N2CC[C@@H](n3ccnn3)C2)c(F)c2c1c(=O)c(C(=O)O)cn2C1CC1` [Example 13, 5-Amino-1-cyclopropyl-6,8-difluoro-7-[3R-(1,2,3-triazol-1-yl)-pyrrolidin-1-yl)-1,4-dihydro-4-oxo-quinoline-3-carboxylic acid]: 0.008 µg/mL (≈ 0.0192 µM) was the least that counted as inhibitory in test [8] (MIC).

On to `NC1CN(c2nc3c(cc2F)c(=O)c(C(=O)O)cn3C2CC2)CC1n1ccnn1` (stereo not drawn) [Example 7, 7-[cis-3-Amino-4-(1,2,3-triazol-1-yl)pyrrolidin-1-yl]-1-cyclopropyl-6-fluoro-1,4-dihdyro-4-oxo-1,8-naphthyridine-3-carboxylic acid hydrochloride], for which the MIC in test [8] amounted to 0.008 µg/mL.

Consider `Nc1c(F)c(N2CC[C@H](n3ccnn3)C2)c(F)c2c1c(=O)c(C(=O)O)cn2-c1ccc(F)cc1F` [Example 15], for which the results for the MIC in test [9], in test [10] and in [8] were 0.008 to 0.015 µg/mL (≈ 0.0164 to 0.0307 µM), 1 to 16 µg/mL (≈ 2.05 to 32.8 µM) and 0.015 µg/mL (≈ 0.0307 µM), respectively.

As for `Nc1c(F)c(N2C[C@@H](N)[C@@H](n3ccnn3)C2)c(F)c2c1c(=O)c(C(=O)O)cn2C1CC1` (relative stereo) [Example 18, 5-Amino-7-[cis-3-amino-4-(1,2,3-triazol-1-yl)-pyrrolidin-1-yl]-1-cyclopropyl-6,8-difluoro-1,4-dihydro-4-oxo-quinoline-3-carboxylic acid], the MIC in test [8] worked out at 0.5 µg/mL (≈ 1.16 µM).

In test [8], `CCOC(=O)c1cn(C2CC2)c2nc(N3CC[C@H](n4ccnn4)C3)c(F)cc2c1=O` [Example 4, Ethyl 1-cyclopropyl-6-fluoro-7-[3(S)-(1,2,3-triazol-1-yl)pyrrolidin-1-yl]-1,4-dihydro-4-oxo-1,8-naphthyridine-3-carboxylate] showed an MIC not above 0.06 µg/mL.

Turning to `NC1CCN(c2nc3c(cc2F)c(=O)c(C(=O)O)cn3-c2ccc(F)cc2F)C1` (stereo not drawn) [Tosufloxacin, reference compound], the MIC lay within 0.015 to 0.03 µg/mL (≈ 0.0371 to 0.0742 µM) in test [9] and 2 to 16 µg/mL (≈ 4.95 to 39.6 µM) in test [10].

Turning to `Nc1c(F)c(N2CC[C@H](n3ccnn3)C2)c(F)c2c1c(=O)c(C(=O)O)cn2C1CC1` [Example 12, 5-Amino-1-cyclopropyl-6,8-difluoro-7-[3S-(1,2,3-triazol-1-yl)-pyrrolidin-1-yl]-1,4-dihydro-4-oxo-quinoline-3-carboxylic acid], the MIC in test [9] was 0.004 to 0.008 µg/mL (≈ 0.00961 to 0.0192 µM); in [10] it was 0.5 to 2 µg/mL (≈ 1.2 to 4.8 µM); with Bacteroides fagilis AN-2 (setting [11]) it was 1 µg/mL (≈ 2.4 µM); in test [1] (setting [12]), 0.12 µg/mL (≈ 0.288 µM); in test [2] (setting [13]) it was 0.06 µg/mL (≈ 0.144 µM); in test [3] (setting [14]), 0.06 µg/mL (≈ 0.144 µM). Moreover, the MIC turned out to be 0.06 µg/mL (≈ 0.144 µM) in test [4] (setting [15]) and 0.008 µg/mL (≈ 0.0192 µM) in [8].

Consider `Nc1c(F)c(N2C[C@@H](N)[C@@H](n3ccnn3)C2)c(F)c2c1c(=O)c(C(=O)O)cn2-c1ccc(F)cc1F` (relative stereo) [Example 19, 5-Amino-7-[cis-3-amino-4-(1,2,3-triazol-1-yl)-pyrrolidin-1-yl]-1-(2,4-difluorophenyl)-6,8-difluoro-1,4-dihydro-4-oxo-quinoline-3-carboxylic acid], for which the MIC in test [8] was found to be 0.5 µg/mL (≈ 0.993 µM).

For the compound `C[C@@H]1CN(c2c(F)c(N)c3c(=O)c(C(=O)O)cn(C4CC4)c3c2F)C[C@H](C)N1` [Sparfloxacin, reference compound], the MIC in test [9] was 0.03 to 0.12 µg/mL (≈ 0.0765 to 0.306 µM); in test [10], 4 to 16 µg/mL (≈ 10.2 to 40.8 µM); with Bacteroides fagilis AN-2 (setting [11]), 2 µg/mL (≈ 5.1 µM); in test [1] (setting [12]), 0.5 µg/mL (≈ 1.27 µM); in test [2] (setting [13]) it was 0.5 µg/mL (≈ 1.27 µM); in test [3] (setting [14]), 1 µg/mL (≈ 2.55 µM). The MIC in test [4] (setting [15]) stood at 4 µg/mL (≈ 10.2 µM); in [8], 0.06 µg/mL (≈ 0.153 µM).

With `Nc1c(F)c(N2CCC(n3ccnn3)C2)c(F)c2c1c(=O)c(C(=O)O)cn2-c1ccc(F)cc1F` (stereo not drawn) [Example 14, 5-Amino-1-(2,4-difluorophenyl)-6,8-difluoro-7-[3-(1,2,3-triazol-1-yl)pyrrolidin-1-yl]-1,4-dihydro-4-oxo-quinoline-3 carboxylic acid], the MIC in test [9] was 0.008 to 0.03 µg/mL (≈ 0.0164 to 0.0614 µM); in [10] it was 1 to 8 µg/mL (≈ 2.05 to 16.4 µM); in the test with Bacteroides fagilis AN-2 (setting [11]) it was more than 64 µg/mL; in test [1] (setting [12]), 0.06 µg/mL (≈ 0.123 µM); in [2] (setting [13]), 2 µg/mL (≈ 4.09 µM); in test [3] (setting [14]), 0.06 µg/mL (≈ 0.123 µM). In addition, the MIC in [4] (setting [15]) is 0.12 µg/mL (≈ 0.246 µM); in test [8], not above 0.015 µg/mL.

Compound `CCOC(=O)c1cn(C2CC2)c2nc(N3C[C@@H](N)[C@@H](n4ccnn4)C3)c(F)cc2c1=O` (relative stereo) [Example 6, Ethyl 7-[cis-3-amino-4-(1,2,3-triazol-1-yl)pyrrolidin-1-yl] -1-cyclopropyl-6-fluoro-1,4-dihydro-4-oxo-1,8-naphthyridine-3-carboxylate] yielded a minimal inhibitory concentration (MIC) in [8] not above 0.03 µg/mL.

`Nc1c(F)c(N2CC[C@@H](n3ccnn3)C2)c(F)c2c1c(=O)c(C(=O)O)cn2-c1ccc(F)cc1F` [Example 16, 5-Amino-1-(2,4-difluorophenyl)-6,8-difluoro-7-[3R-(1,2,3-triazol-1-yl)-pyrrolidin-1-yl]-1,4-dihydro-4-oxo-quinoline-3-carboxylic acid] returned an MIC in test [8] of 0.015 µg/mL (≈ 0.0307 µM).
